Test results: publication PMC11419154 (bioRxiv, 2024)
“Also recorded” adds a separate entry of the source.

Key:
Type in all cases: cell-based, Drosophila melanogaster
[1] = tested on: class III dendritic arborizing (cIII da) neurons; test: Confocal GCaMP6f calcium imaging in larval cIII da neurons; settings: AITC application at time 0 s; n = 12 neurons
[2] = tested on: Pickpocket (ppk RNAi in cIV da neurons); test: Calcium imaging in cIV da neurons with ppk RNAi; settings: versus attP genetic control; n = 6 neurons
[3] = tested on: Balboa (bba RNAi in cIV da neurons); test: Calcium imaging in cIV da neurons with bba RNAi; settings: versus attP2 genetic control; n = 6 neurons
dTRPA1-C = test: Calcium imaging in cIII da neurons expressing dTRPA1-C; settings: AITC application at time 0 s; n = 12 neurons
dTRPA1-D = test: Calcium imaging in cIII da neurons expressing dTRPA1-D; settings: AITC application at time 0 s; n = 12 neurons

C=CCN=C=S [AITC, allyl isothiocyanate]
Calcium response of cIII da neurons, AITC [1]: do not activate strongly in response to AITC | Calcium response with ppk RNAi, AITC [2]: did not strongly affect their responses to AITC; also recorded: respond to AITC similarly as genetic controls | Calcium response with bba RNAi, AITC [3]: did not strongly affect their responses to AITC; also recorded: respond to AITC similarly as genetic controls | Calcium response of cIII da neurons expressing dTRPA1-C, AITC (dTRPA1-C): renders them responsive to AITC; also recorded: rendered them sensitive to AITC | Calcium response of cIII da neurons expressing dTRPA1-D, AITC (dTRPA1-D): renders them responsive to AITC; also recorded: rendered them sensitive to AITC
